From article PMC9954146, “Anti-Leukaemic Activity of Rilpivirine Is Mediated by Aurora A Kinase Inhibition” (Cancers, 2023)

Key:
Assay in all cases: Kinase panel
Assay type in all cases: biochemical
Conditions in all cases: read-out: % Residual Activity
PKCα(h) = biological target: T1, PKCα(h) (Homo sapiens, UniProt P17252)
T1 construct: purchased Eurofins (KinaseProfiler)
How it was run: (§1)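 Selectivity panel (kinome-wide), rilpivirine as test compound. Readout: radiolabel incorporation. ATP = Km of the respective kinase. Ki calculated from IC50 (Cheng–Prusoff).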

Txk(h) = biological target: T2, Txk(h) (Homo sapiens, UniProt P42681)
T2 construct: purchased Eurofins (KinaseProfiler)
How it was run: as §1

TTK(h) = biological target: T3, TTK(h) (Homo sapiens, UniProt P33981)
T3 construct: purchased Eurofins (KinaseProfiler)
How it was run: as §1

PAK2(h) = biological target: T4, PAK2(h) (Homo sapiens, UniProt Q13177)
T4 construct: purchased Eurofins (KinaseProfiler)
How it was run: as §1

EphB3(h) = biological target: T5, EphB3(h) (Homo sapiens, UniProt P54753)
T5 construct: purchased Eurofins (KinaseProfiler)
How it was run: as §1

IKKε(h) = biological target: T6, IKKε(h) (Homo sapiens, UniProt Q14164)
T6 construct: purchased Eurofins (KinaseProfiler)
T6 sequence (Q14164 whole entry): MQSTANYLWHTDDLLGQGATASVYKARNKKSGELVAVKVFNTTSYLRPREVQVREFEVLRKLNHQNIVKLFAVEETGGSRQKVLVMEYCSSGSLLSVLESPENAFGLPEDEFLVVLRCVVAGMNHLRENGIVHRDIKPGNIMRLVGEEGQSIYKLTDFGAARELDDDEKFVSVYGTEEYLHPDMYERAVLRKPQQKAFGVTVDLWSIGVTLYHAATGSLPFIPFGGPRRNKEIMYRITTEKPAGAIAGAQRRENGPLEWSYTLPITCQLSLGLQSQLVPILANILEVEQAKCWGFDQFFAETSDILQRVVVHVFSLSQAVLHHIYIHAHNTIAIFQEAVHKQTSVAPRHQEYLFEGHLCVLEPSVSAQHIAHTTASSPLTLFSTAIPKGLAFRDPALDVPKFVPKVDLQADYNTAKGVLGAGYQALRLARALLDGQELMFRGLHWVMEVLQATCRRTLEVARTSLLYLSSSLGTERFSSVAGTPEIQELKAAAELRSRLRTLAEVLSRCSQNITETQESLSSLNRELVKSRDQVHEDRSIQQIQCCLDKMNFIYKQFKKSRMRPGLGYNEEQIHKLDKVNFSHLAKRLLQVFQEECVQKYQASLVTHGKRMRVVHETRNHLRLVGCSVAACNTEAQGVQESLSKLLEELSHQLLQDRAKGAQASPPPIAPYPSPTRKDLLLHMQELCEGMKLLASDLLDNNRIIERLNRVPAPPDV
How it was run: as §1

Rsk1(h) = biological target: T7, Rsk1(h) (Homo sapiens, UniProt Q15418)
T7 construct: purchased Eurofins (KinaseProfiler)
How it was run: as §1

TYK2(h) = biological target: T8, TYK2(h) (Homo sapiens, UniProt P29597)
T8 construct: purchased Eurofins (KinaseProfiler)
How it was run: as §1

GSK3α(h) = biological target: T9, GSK3α(h) (Homo sapiens, UniProt P49840)
T9 construct: purchased Eurofins (KinaseProfiler)
How it was run: as §1

ALK6(h) = biological target: T10, ALK6(h) (Homo sapiens, UniProt O00238)
T10 construct: purchased Eurofins (KinaseProfiler)
T10 sequence (O00238 14-502): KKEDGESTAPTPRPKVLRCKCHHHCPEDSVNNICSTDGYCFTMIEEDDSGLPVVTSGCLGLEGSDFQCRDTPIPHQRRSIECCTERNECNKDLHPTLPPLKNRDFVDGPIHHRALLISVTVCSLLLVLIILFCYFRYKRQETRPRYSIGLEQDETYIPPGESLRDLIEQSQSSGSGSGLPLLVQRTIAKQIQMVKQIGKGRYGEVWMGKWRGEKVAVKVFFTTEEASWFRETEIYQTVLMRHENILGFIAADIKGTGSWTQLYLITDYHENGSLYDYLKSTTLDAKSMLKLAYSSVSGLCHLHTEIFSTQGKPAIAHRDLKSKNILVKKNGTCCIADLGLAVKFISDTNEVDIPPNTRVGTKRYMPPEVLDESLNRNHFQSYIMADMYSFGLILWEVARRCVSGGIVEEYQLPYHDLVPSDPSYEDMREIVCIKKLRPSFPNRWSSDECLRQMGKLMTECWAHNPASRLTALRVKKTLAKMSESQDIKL
How it was run: as §1

SAPK4(h) = biological target: T11, SAPK4(h) (Homo sapiens, UniProt O15264)
T11 construct: purchased Eurofins (KinaseProfiler)
How it was run: as §1

PKCβI(h) = biological target: T12, PKCβI(h) (Homo sapiens, UniProt P05771)
T12 construct: purchased Eurofins (KinaseProfiler)
How it was run: as §1

ATM(h) = biological target: T13, ATM(h) (Homo sapiens, UniProt Q13315)
T13 construct: purchased Eurofins (KinaseProfiler)
How it was run: as §1

Blk(h) = biological target: T14, Blk(h) (Homo sapiens, UniProt P51451)
T14 construct: purchased Eurofins (KinaseProfiler)
How it was run: as §1

Hck(h) = biological target: T15, Hck(h) (Homo sapiens, UniProt P08631)
T15 construct: purchased Eurofins (KinaseProfiler)
T15 sequence (P08631 whole entry): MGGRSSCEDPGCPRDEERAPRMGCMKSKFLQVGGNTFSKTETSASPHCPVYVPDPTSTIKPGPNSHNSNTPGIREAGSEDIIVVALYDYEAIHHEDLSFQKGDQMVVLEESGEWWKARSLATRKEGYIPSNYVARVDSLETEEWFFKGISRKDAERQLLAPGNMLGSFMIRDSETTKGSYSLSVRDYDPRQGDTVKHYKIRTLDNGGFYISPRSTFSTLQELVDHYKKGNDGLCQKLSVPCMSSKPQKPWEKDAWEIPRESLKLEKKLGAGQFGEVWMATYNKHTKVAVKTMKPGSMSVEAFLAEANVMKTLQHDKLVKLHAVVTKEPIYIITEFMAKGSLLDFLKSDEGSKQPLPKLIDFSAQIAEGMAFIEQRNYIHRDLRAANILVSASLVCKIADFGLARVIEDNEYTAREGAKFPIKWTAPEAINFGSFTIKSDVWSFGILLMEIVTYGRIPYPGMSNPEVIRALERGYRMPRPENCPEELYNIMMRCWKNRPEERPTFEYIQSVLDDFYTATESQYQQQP
How it was run: as §1

Mnk2(h) = biological target: T16, Mnk2(h) (Homo sapiens, UniProt Q9HBH9)
T16 construct: purchased Eurofins (KinaseProfiler)
How it was run: as §1

CDK9/cyclin T1(h) = biological target: T17, CDK9/cyclin T1(h) (Homo sapiens, UniProt P50750)
T17 construct: purchased Eurofins (KinaseProfiler)
How it was run: as §1

DYRK3(h) = biological target: T18, DYRK3(h) (Homo sapiens, UniProt O43781)
T18 construct: purchased Eurofins (KinaseProfiler)
How it was run: as §1

MLK1(h) = biological target: T19, MLK1(h) (Homo sapiens, UniProt P80192)
T19 construct: purchased Eurofins (KinaseProfiler)
T19 sequence (P80192 whole entry): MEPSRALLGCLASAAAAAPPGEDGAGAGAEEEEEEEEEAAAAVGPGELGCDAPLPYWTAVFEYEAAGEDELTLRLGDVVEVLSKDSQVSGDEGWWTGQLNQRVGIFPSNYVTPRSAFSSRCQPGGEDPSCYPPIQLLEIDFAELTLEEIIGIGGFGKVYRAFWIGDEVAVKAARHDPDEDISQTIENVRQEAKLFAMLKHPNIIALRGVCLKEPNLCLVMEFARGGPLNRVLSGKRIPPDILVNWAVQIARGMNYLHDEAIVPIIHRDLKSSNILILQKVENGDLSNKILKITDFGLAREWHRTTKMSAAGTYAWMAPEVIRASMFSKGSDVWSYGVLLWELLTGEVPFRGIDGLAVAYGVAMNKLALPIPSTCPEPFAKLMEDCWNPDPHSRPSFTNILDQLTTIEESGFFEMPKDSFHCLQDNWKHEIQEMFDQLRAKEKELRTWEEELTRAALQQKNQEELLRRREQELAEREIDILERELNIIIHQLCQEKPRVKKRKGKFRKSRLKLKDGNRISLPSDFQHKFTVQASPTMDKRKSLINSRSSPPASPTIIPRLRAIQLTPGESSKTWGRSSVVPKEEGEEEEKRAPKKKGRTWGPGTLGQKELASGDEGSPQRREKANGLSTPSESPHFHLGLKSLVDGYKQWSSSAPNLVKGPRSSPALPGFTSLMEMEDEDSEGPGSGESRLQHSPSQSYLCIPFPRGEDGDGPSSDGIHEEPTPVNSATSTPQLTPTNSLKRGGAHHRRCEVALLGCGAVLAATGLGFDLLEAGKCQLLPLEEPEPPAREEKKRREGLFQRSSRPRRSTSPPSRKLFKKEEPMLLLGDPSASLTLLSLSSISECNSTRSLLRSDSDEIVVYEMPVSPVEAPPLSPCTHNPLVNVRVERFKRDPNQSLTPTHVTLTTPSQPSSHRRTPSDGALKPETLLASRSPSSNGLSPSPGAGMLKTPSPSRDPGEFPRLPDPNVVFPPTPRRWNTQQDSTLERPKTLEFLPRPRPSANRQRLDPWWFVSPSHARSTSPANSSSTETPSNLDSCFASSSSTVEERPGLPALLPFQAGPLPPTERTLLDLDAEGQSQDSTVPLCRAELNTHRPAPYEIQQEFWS
How it was run: as §1

FGFR2(h) = biological target: T20, FGFR2(h) (Homo sapiens, UniProt P21802)
T20 construct: purchased Eurofins (KinaseProfiler)
How it was run: as §1

DAPK1(h) = biological target: T21, DAPK1(h) (Homo sapiens, UniProt P53355)
T21 construct: purchased Eurofins (KinaseProfiler)
How it was run: as §1

NEK9(h) = biological target: T22, NEK9(h) (Homo sapiens, UniProt Q8TD19)
T22 construct: purchased Eurofins (KinaseProfiler)
T22 sequence (Q8TD19 whole entry): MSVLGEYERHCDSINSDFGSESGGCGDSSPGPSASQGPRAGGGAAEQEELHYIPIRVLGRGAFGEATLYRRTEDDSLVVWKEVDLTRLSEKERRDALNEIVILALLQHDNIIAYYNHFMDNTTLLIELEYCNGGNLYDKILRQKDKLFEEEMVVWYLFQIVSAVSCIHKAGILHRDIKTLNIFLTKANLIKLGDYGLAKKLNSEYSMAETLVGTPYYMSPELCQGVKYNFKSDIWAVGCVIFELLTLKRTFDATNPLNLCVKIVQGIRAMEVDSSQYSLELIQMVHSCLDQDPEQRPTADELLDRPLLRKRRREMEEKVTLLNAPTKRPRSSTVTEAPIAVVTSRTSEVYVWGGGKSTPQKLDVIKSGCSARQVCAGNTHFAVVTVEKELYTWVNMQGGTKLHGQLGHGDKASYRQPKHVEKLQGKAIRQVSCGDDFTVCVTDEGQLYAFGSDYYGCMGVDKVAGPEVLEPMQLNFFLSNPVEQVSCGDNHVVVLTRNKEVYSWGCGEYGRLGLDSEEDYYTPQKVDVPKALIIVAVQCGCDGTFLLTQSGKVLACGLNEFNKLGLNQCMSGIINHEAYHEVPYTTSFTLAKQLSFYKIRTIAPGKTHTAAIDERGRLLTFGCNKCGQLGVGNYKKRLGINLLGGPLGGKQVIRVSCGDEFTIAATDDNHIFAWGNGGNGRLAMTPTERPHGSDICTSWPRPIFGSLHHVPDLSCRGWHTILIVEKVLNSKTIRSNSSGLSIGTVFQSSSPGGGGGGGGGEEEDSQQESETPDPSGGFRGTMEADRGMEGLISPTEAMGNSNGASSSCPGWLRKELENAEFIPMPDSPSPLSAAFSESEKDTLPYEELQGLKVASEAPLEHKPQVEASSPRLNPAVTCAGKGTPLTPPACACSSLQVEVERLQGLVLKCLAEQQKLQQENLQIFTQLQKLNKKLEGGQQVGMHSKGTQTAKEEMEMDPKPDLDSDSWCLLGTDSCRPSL
How it was run: as §1

GRK1(h) = biological target: T23, GRK1(h) (Homo sapiens, UniProt Q15835)
T23 construct: purchased Eurofins (KinaseProfiler)
How it was run: as §1

KDR(h) = biological target: T24, KDR(h) (Homo sapiens, UniProt P35968)
T24 construct: purchased Eurofins (KinaseProfiler)
How it was run: as §1

PDGFRβ(h) = biological target: T25, PDGFRβ(h) (Homo sapiens, UniProt P09619)
T25 construct: purchased Eurofins (KinaseProfiler)
How it was run: as §1

Tec(h) activated = biological target: T26, Tec(h) activated (Homo sapiens, UniProt P42680)
T26 construct: purchased Eurofins (KinaseProfiler)
How it was run: as §1

TSSK2(h) = biological target: T27, TSSK2(h) (Homo sapiens, UniProt Q96PF2)
T27 construct: purchased Eurofins (KinaseProfiler)
How it was run: as §1

MSSK1(h) = biological target: T28, MSSK1(h) (Homo sapiens, UniProt Q9UPE1)
T28 construct: purchased Eurofins (KinaseProfiler)
How it was run: as §1

CDK14/cyclinY(h) = biological target: T29, CDK14/cyclinY(h) (Homo sapiens, UniProt O94921)
T29 construct: purchased Eurofins (KinaseProfiler)
How it was run: as §1

CK1γ3(h) = biological target: T30, CK1γ3(h) (Homo sapiens, UniProt Q9Y6M4)
T30 construct: purchased Eurofins (KinaseProfiler)
How it was run: as §1

STK32C(h) = biological target: T31, STK32C(h) (Homo sapiens, UniProt Q86UX6)
T31 construct: purchased Eurofins (KinaseProfiler)
How it was run: as §1

EGFR(L861Q)(h) = biological target: T32, EGFR(L861Q)(h) (Homo sapiens, UniProt P00533, L861Q)
T32 construct: purchased Eurofins (KinaseProfiler)
How it was run: as §1

SGK3(h) = biological target: T33, SGK3(h) (Homo sapiens, UniProt Q96BR1)
T33 construct: purchased Eurofins (KinaseProfiler)
How it was run: as §1

DRAK2(h) = biological target: T34, DRAK2(h) (Homo sapiens, UniProt O94768)
T34 construct: purchased Eurofins (KinaseProfiler)
How it was run: as §1

MAP4K3(h) = biological target: T35, MAP4K3(h) (Homo sapiens, UniProt Q8IVH8)
T35 construct: purchased Eurofins (KinaseProfiler)
How it was run: as §1

[1] = biological target: T36, PI3 Kinase (p110d/p85a)(h) (Homo sapiens, UniProt O00329)
T36 construct: purchased Eurofins (KinaseProfiler)
How it was run: as §1

Plk1(h) = biological target: T37, Plk1(h) (Homo sapiens, UniProt P53350)
T37 construct: purchased Eurofins (KinaseProfiler)
How it was run: as §1

MARK1(h) = biological target: T38, MARK1(h) (Homo sapiens, UniProt Q9P0L2)
T38 construct: purchased Eurofins (KinaseProfiler)
T38 sequence (Q9P0L2 whole entry): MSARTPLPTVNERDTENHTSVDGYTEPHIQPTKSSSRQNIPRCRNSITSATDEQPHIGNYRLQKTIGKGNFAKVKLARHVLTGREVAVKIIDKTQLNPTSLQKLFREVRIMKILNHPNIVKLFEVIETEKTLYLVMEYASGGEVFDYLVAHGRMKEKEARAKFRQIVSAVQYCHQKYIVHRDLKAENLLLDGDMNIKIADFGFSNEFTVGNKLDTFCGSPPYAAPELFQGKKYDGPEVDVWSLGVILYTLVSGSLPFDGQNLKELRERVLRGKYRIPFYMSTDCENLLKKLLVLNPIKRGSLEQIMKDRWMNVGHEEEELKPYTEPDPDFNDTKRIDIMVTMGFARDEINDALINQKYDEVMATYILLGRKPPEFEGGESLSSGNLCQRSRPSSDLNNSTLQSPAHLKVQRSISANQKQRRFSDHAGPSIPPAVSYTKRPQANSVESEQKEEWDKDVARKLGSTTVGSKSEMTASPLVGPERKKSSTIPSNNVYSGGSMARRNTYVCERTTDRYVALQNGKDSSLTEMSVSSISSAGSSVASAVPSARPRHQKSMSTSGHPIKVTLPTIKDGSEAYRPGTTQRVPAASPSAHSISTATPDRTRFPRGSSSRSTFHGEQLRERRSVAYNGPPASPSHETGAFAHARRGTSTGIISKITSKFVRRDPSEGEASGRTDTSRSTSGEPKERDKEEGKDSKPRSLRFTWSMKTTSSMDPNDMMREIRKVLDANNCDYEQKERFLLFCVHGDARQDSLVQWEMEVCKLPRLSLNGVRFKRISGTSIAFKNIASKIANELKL
How it was run: as §1

CK1ε(h) = biological target: T39, CK1ε(h) (Homo sapiens, UniProt P49674)
T39 construct: purchased Eurofins (KinaseProfiler)
T39 sequence (P49674 whole entry): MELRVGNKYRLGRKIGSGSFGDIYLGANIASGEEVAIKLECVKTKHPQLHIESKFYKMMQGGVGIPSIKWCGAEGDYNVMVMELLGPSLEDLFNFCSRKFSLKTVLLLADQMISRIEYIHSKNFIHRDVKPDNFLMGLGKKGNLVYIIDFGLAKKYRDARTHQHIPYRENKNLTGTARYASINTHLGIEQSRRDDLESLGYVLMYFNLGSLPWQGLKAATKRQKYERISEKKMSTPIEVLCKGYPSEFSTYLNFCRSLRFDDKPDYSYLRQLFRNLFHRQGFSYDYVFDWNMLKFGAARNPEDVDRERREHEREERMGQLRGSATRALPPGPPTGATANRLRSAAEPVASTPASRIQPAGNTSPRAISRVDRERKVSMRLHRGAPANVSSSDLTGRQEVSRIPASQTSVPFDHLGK
How it was run: as §1

Cc1cc(/C=C/C#N)cc(C)c1Nc1ccnc(Nc2ccc(C#N)cc2)n1 [rilpivirine, (E)-4-((4-((4-(2-cyanoethenyl)-2,6-dimethylphenyl)amino)pyrimidin-2-yl)amino)benzonitrile]
remaining activity at 1 µM (PKCα(h)): 83%
remaining activity at 1 µM (Txk(h)): 79%
remaining activity at 1 µM (TTK(h)): 71%
remaining activity at 1 µM (PAK2(h)): 89%
remaining activity at 1 µM (EphB3(h)): 88%
remaining activity at 1 µM (IKKε(h)): 82%
remaining activity at 1 µM (Rsk1(h)): 91%
remaining activity at 1 µM (TYK2(h)): 52%
remaining activity at 1 µM (GSK3α(h)): 80%
remaining activity at 1 µM (ALK6(h)): 83%
remaining activity at 1 µM (SAPK4(h)): 97%
remaining activity at 1 µM (PKCβI(h)): 89%
remaining activity at 1 µM (ATM(h)): 111%
remaining activity at 1 µM (Blk(h)): 73%
remaining activity at 1 µM (Hck(h)): 50%
remaining activity at 1 µM (Mnk2(h)): 85%
remaining activity at 1 µM (CDK9/cyclin T1(h)): 81%
remaining activity at 1 µM (DYRK3(h)): 84%
remaining activity at 1 µM (MLK1(h)): 81%
remaining activity at 1 µM (FGFR2(h)): 95%
remaining activity at 1 µM (DAPK1(h)): 83%
remaining activity at 1 µM (NEK9(h)): 90%
remaining activity at 1 µM (GRK1(h)): 103%
remaining activity at 1 µM (KDR(h)): 85%
remaining activity at 1 µM (PDGFRβ(h)): 93%
remaining activity at 1 µM (Tec(h) activated): 105%
remaining activity at 1 µM (TSSK2(h)): 91%
remaining activity at 1 µM (MSSK1(h)): 84%
remaining activity at 1 µM (CDK14/cyclinY(h)): 91%
remaining activity at 1 µM (CK1γ3(h)): 107%
remaining activity at 1 µM (STK32C(h)): 94%
remaining activity at 1 µM (EGFR(L861Q)(h)): 35%
remaining activity at 1 µM (SGK3(h)): 99%
remaining activity at 1 µM (DRAK2(h)): 107%
remaining activity at 1 µM (MAP4K3(h)): 91%
remaining activity at 1 µM [1]: 89%
remaining activity at 1 µM (Plk1(h)): 107%
remaining activity at 1 µM (MARK1(h)): 82%
remaining activity at 1 µM (CK1ε(h)): 116%
